According to patent US9107954B2, “Bivalent ligands for the treatment of neurological disorders” (Virginia Commonwealth University, priority 2012, dated 2015):

Legend:
[1] = system: R5-tropic HIV-1Bal Vpr-GFP in primary astroglial cells; test: Confocal microscopy of HIV-1Bal Vpr-GFP entry into astroglial cells; assay type: cell-based; conditions: 100 nM, 18 to 20 h
Experimental: For direct visualization of viral entry, fluorescent HIV-1 particles were generated by co-transfection of a vector containing a full-length R5-tropic HIV-1 provirus (NIH AIDS Research & Reference Reagent Program, Division of AIDS, NIAID, NIH: pWT/BaL (catalog #11414) and Vpr-GFP into HEK-293T cells as described in [9]. Primary astroglial cells were infected with the HIV-1 Vpr-GFP particles in the absence or presence of 100 nM bivalent ligand for 18 to 20 h at 37° C., washed in PBS, fixed with 4% paraformaldehyde, and counterstained with DAPI. Cells were imaged using a Zeiss LSM 700 laser scanning confocal microscope equipped with a 63×(1.42 numerical aperture [NA]) objective, using 488-nm laser excitation with dichroic beam-splitter set at 492 nm to optimize GFP detection.

[2] = system: R5-tropic HIV-1SF162 in primary human astrocytes; test: HIV-1SF162 infectivity, Tat luciferase reporter assay in primary human astrocytes; assay type: cell-based
Experimental: Primary human astrocytes (ScienCell catalog #1901) were cultured in 24-well plates and transfected with the plasmid pBlue3′LTR-luc (NIH AIDS Research and Reference Reagent Program) using Lipofectamine 2000 (Invitrogen) followed by infection with HIV-1. After 18-20 h cells were rinsed twice in 1×PBS then lysed in Cell Culture Lysis Reagent (Promega) and relative Tat protein expression was determined by measuring luciferase activity using the Luciferase Assay System (Promega; catalog # E1500). Light units were measured using a PHERAstar FS plate reader (BMG Labtech).
Primary human astroglial cells were infected by incubation with the neurotropic HIV-1 strain SF162. A concentration of HIV-1 p24 50 pg/10^6 cells was used, and a no virus condition served as a negative control. Viral stocks were quantified by assaying for HIV-1 p24 (Alliance p24 Antigen ELISA Kit; Advanced Bioscience, Kensington, Md.).
HIV-1SF162 infectivity of human astroglia was determined based on the relative amount of Tat protein expressed by the virus using a luciferase-based reporter assay. Reporters under the control of the long terminal repeat (LTR) viral promoter are a robust means of measuring HIV-1 infection, since the LTR is activated by HIV-1 Tat, which is only expressed by infected cells.
As the bivalent ligand 1 has been designed as a molecular probe to study the underlying mechanisms of opioid-enhanced NeuroAIDS by targeting the MOR-CCR5 heterodimerization, a luciferase-based HIV-1SF162) infection assay measuring the relative transactivator of transcription (Tat) protein expression in human astrocytes was performed (FIG. 15). Tat is encoded by HIV-1 and is the first protein to be produced after HIV-1 infection. Thus, Tat expression level is directly proportioned to the extent of HIV-1 invasion. Astrocytes were chosen based on the following facts: first, astrocytes express both the MOR and the CCR5. Second, the human blood-brain barrier (BBB) is composed of interacting adjacent cerebral endothelial cells (CECs) and astrocytes, which makes astrocytes a readily accessible target during the course of HIV infection. Thirdly, during NeuroAIDS development astroglia are important cellular sites within the CNS where opioids synergistically potentiate the pathophysiological effects of HIV-1 infection.

TNF-α = test: Cytokine release ELISA, HIV-1 infected astroglia supernatant: TNF-α; assay type: cell-based, human; conditions: 18-20 h; bivalent ligand ± morphine
Experimental: The protein levels of the cytokines TNF-α, IL-6, IL-1β and the chemokine RANTES were measured by ELISA (Quantikine kits; R&D Systems Minneapolis, Minn.).
After 18-20 h exposure, supernatant was removed and analyzed by ELISA to quantitatively analyze the release of the cytokines TNF-α, IL-1β and IL-6 and the chemokine RANTES.

CCR5 = test: Flow cytometry of CCR5 immunofluorescence in HIV-1 infected primary human astrocytes; assay type: cell-based; conditions: maraviroc co-exposure; bivalent ligand ± morphine
Experimental: (§1) MOR and CCR5 immunoreactivity were detected by direct immunofluorescence in astroglial cells by flow cytometric analysis. Cells were washed in phosphate-buffered saline (PBS)-0.1% bovine serum albumin (BSA) buffer and incubated with primary MOR antibody followed by a secondary antibody conjugated to allophycocyanin (APC) (Biolegend, Inc; catalog #408001) and Alexa Fluor® 488 conjugated anti-mouse CD195 (CCR5) antibody (Biolegend, Inc; catalog #107008) in permeabilization buffer (PBS-0.1% BSA-0.1% Triton X-100) at a 1:500 dilution. Fluorescence was measured from 10,000 gated cells per treatment in each experiment using a FACSCanto II flow cytometer (BD Biosciences, San Jose, Calif.). Auto-fluorescence was compensated by setting the detector voltage to the minimum level that discriminates between auto-fluorescence and specific immunofluorescence in both negative and positive controls. Isotype control antibodies were used to define settings in histogram plot analyses.
(§2) We quantitatively analyzed the effect of MVC and the bivalent compound on CCR5 and MOR expression levels in virally infected astrocytes by flow cytometry. […] Approximately 20,000 events were analyzed per treatment condition in each experiment and size discrimination was used as a crude method for viability determination.

CCR5 and MOR = test: Flow cytometry of CCR5 and MOR co-localization in HIV-1 infected primary human astrocytes; assay type: cell-based
Experimental: as §1, §2

Cc1nnc(C(C)C)n1C1CC2CCC(C1)N2CC[C@H](NC(=O)C1CCC(F)(F)CC1)c1ccc(NC(=O)COCC(=O)NCCCCCCCNC(=O)COCC(=O)N[C@@H]2CC[C@@]3(O)[C@H]4Cc5ccc(O)c6c5[C@@]3(CCN4CC3CC3)[C@H]2O6)cc1 (stereo partly shown) [bivalent ligand 1]
viral entry by confocal microscopy [1]: abolished viral entry | potency in HIV-1 entry inhibition relative to the mixture of maraviroc and naltrexone [2]: two times | decrease in Tat expression compared to maraviroc alone or the combination of maraviroc and naltrexone ([2]; 100 nM): two-fold | fold decrease in Tat expression compared to MVC with NTX plus morphine, bivalent compound plus morphine ([2]; 100 nM + morphine 500 nM): 4.4 fold | fold decrease in Tat expression compared to R5 plus MVC, bivalent compound plus morphine ([2]; 100 nM + morphine 500 nM): 2.9 fold | fold decrease in Tat expression compared to R5 HIV-1 alone ([2]; 100 nM, 18-20 h post-infection, no morphine): 4.4 fold | fold decrease in virus entry compared to maraviroc with morphine ([2]; 100 nM, morphine 500 nM, Example 3): 7 fold | fold decrease in virus entry compared to maraviroc alone ([2]; 100 nM, without morphine, Example 3): 3.3 fold | fold decrease in Tat expression compared to R5 plus MVC ([2]; bivalent ligand 100 nM, no morphine): 2.0 fold | effect of morphine stimulation on potency ([2]; morphine 500 nM): no effect | fold decrease in TNF-α release compared to R5 HIV-1 alone (TNF-α): 2.0 fold | fold decrease in CCR5 expression levels compared to R5 HIV-1 (CCR5): 1.8 fold | fold increase in astrocytes expressing both CCR5 and MOR compared to R5 HIV-1 alone (CCR5 and MOR): 1.6 fold
